Assay [1] addresses T1, M4 muscarinic receptor (Homo sapiens, UniProt P08173).
T1 construct: expressed in transfected cells; host or cells: CHO
T1 sequence (P08173 1-479): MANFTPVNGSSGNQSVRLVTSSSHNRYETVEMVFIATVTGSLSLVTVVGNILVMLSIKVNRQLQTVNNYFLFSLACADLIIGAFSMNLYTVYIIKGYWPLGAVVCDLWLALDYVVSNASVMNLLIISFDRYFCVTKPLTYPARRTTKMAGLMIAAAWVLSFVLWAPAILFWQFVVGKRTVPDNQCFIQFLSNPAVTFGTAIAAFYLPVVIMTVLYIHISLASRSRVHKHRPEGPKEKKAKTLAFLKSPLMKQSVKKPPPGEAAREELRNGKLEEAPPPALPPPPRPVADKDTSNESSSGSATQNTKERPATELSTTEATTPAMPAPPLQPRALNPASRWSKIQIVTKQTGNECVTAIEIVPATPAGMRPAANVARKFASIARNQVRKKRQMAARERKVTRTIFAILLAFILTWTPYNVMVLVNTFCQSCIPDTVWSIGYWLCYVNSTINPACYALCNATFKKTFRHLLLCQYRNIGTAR
Kind of assay: Functional mobilization of intracellular calcium (FLIPR) in CHO cells expressing M4. The note with it: for EC50: CHO cells expressing M4, calcium mobilization; for Emax: CHO, 100% efficacy is the maximum response obtained with the Carbachol control. It counts as cell-based. How it is done: (§1) Functional Mobilization of Intracellular Calcium to Determine Muscarinic Receptor Activity:
(§2) CHO cells expressing muscarinic receptors (M1 to M5) are grown as monolayers in tissue culture flasks at 37° C. in a humidified atmosphere containing 5% CO2 and passaged every 3-5 days. The growth media is Dulbecco's modified eagles medium (DMEM, Gibco Cat#12430-054), containing 25 mM Hepes and supplemented with Fetal Bovine Serum (Hyclone, Cat#SH30071.03), 0.1 mM of MEM non-essential amino acids (GIBCO, Cat#11140-050), 1 mM MEM Sodium Pyruvate (GIBCO Cat#11360-070) and 100 units/ml of Penicillin G and 100 μg/ml of Streptomycin (GIBCO Cat#15140-122). The recombinant muscarinic receptor cell lines are grown under antibiotic pressure with media containing 25 μg/ml zeocin and 500 μg/ml G418 (MI-CHO), 4 μg/ml puromycin, 50 μg/ml zeocin and 2.5 μg/ml blasticidin (M2 and M4-CHO) or 50 μg/ml zeocin and 4 μg/ml puromycin (M3 and M5-CHO).
(§3) Cells are harvested at 80-90% confluence using Versene (GIBCO Cat#15040-066), collected by centrifugation and seeded 18-24 hours prior to running the calcium assay at a density of 5,000-10,000 cells/well in […], clear-bottomed 384-well plates (BD Biocoat, poly-D-lysine, Cat#356663). The day of the experiment, the cells are washed with a plate washer (Bioteck Instruments, ELX 405) using bath 1 buffer (140-mM NaCl, 4.5-mM KCl, 2-mM CaCl2, 1-mM MgCl2, 10-mM Hepes-Na, 10-mM Glucose, pH 7.4, with NaOH) containing 1 mM Probenecid. Next, the calcium dye Fluo-3 (25 μl well of Fluo-3 AM at 4 μM, Molecular Probes F-1241, in Bath 1 buffer containing 1 mM Probenecid) is added to the 25 μl of Bath 1 remaining in each well after the plate wash and the dye is loaded at 37° C. in the tissue culture incubator for 60-90 min. The fluorescent dye is removed using the plate washer with Bath 1 containing 1 mM Probenecid, leaving 25 μl/well of this solution after the wash. Alternatively, cells can be loaded with the calcium indicator from Molecular Devices (Calcium 3 Assay Reagents, Cat #R7181) adding 5 μl of a 5× solution dye in Bath 1 containing 1 mM Probenecid (10 ml per dye flask cat#R7182 to generate a solution 20×) to 20 μl of the same buffer. After loading for 60 min, the experiment can be run without having to remove the dye.
(§4) Compounds are prepared at a 2× fold concentration in a 96-well plate (round bottom, Costar Corning cat#3656), by reconstituting the pre-spotted compounds in bath 1 containing 1 mM probenecid. The final concentration DMSO is 0.5%, and the amount of DMSO is normalized across the assay plate. To determine an agonist action of the compounds on muscarinic receptors, the reconstituted compounds are added (25 μl compound/well) to the cell assay plate (containing 25 μl/well) using the multi-channel robotic system of the FLIPR 3 Instrument (Molecular Devices, Sunnyvale, Calif.). To determine a functional inhibitory action of the compounds on muscarinic receptors, the reconstituted compounds are added (25 μl compound/well) to the assay plate and pre-incubated for 15 min prior to adding 25 μl of Carbachol at 3× the EC80 for each muscarinic subtype. Alternatively, the compounds can be co-applied simultaneously with the agonist. In both assay modes, the fluorescence is recorded for 60 sec (excitation wavelength is […] and emission wavelength 540 nm) using the FLIPR 3 instrument.
(§5) The potency, efficacy and selectivity of the muscarinic compounds were evaluated by screening the compound activity across the whole family (M1 to M5 cells). Compounds were also screened for activity on other proteins such as other GPCRs and ion channels to determine selectivity on M4 receptors.
(§6) Examples of activities and efficacies of the muscarinic compounds of formulae (I, I-A, and I-B) on modulating M1 and M4 receptors are shown below in Table 4. […]
A general note: Calcium flux is commonly read through the fluorescence of an indicator in the cells.

Assay [2] concerns the target T2, M1 muscarinic receptor (Homo sapiens, UniProt P11229).
T2 construct: expressed in transfected cells; host or cells: CHO
T2 sequence (P11229 1-460): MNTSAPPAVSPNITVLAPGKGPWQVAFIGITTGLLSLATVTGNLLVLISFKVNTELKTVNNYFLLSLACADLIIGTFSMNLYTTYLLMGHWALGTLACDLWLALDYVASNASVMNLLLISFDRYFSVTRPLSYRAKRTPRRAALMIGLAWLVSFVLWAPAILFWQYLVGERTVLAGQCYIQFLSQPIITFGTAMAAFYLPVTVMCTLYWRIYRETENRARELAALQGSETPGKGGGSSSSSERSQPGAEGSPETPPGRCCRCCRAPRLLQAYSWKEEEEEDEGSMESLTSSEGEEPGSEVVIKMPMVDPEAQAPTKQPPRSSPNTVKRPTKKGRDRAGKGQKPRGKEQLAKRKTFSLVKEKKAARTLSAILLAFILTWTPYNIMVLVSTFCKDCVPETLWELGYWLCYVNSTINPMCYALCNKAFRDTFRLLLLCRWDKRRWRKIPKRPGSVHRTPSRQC
Kind of assay: Functional mobilization of intracellular calcium (FLIPR) in CHO cells expressing M1. It counts as cell-based. The following applies: for EC50: CHO cells expressing M1, calcium mobilization; for Emax: CHO, 100% efficacy is the maximum response obtained with the Carbachol control. How it is done: as §1, §2, §3, §4, §5, §6

Each structure is given as a SMILES string.

As usually defined, the EC50 is the concentration giving half of the maximal effect. The Emax is the maximal effect, on the per cent scale that the assay sets. As for `CN(C)C(=O)N1CCCC2(CCN(CC3CCCCC3)CC2)c2ccccc21` [Compound 27], in assay [1], the EC50 was above 10 µM and the Emax was below 25%. In addition, in assay [2], the EC50 is above 10 µM and the Emax is below 25%.

Regarding `NC(=O)N1CCCC2(CCN(CC3CC4C=CC3C4)CC2)c2ccccc21` (centres unmarked) [Compound 2], in assay [1], the EC50 was below 2 µM and the Emax lay in the range of 25 to 100%. Besides, in assay [2], the EC50 was 2 to 10 µM and the Emax is below 25%.

`CC(=O)N1CCCC2(CCN(CCC(C)(C)C)CC2)c2ccccc21` [Compound 32]: in assay [1], the EC50 is below 2 µM and the Emax was in the range of 25 to 100%. Further, in assay [2], the EC50 lay within 2 to 10 µM and the Emax is below 25%.

Take `CC(C)(C)CCN1CCC2(CCC(=O)Nc3ccccc32)CC1` [Compound 36, 1′-(3,3-dimethylbutyl)-3,4-dihydrospiro[benzo[b]azepine-5,4′-piperidin]-2(1H)-one]: in assay [1], the EC50 was below 2 µM and the Emax lay within 25 to 100%. In assay [2], the EC50 was below 2 µM and the maximum response (Emax) was in the range of 25 to 100%.

`CN1C(=O)CCC2(CCN(CCC(C)(C)C)CC2)c2ccccc21` [Compound 3]: the values for the EC50 in assay [1] and in assay [2] were below 2 µM and 2 to 10 µM, respectively. The Emax in assay [1] and in assay [2] was 25 to 100% in each case.

`CN(C)C(=O)N1CCCC2(CCN(CC3CC4C=CC3C4)CC2)c2ccccc21` (centres unmarked) [Compound 15]: in assay [1], the EC50 is below 2 µM and the Emax was 25 to 100%. Further, in assay [2], the EC50 is above 10 µM and the Emax is below 25%.

As to `CC(=O)N1CCCC2(CCN(CC3CC4C=CC3C4)CC2)c2ccccc21` (centres unmarked) [Compound 9], in assay [1], the EC50 is below 2 µM and the Emax was 25 to 100%. Also, in assay [2], the EC50 was above 10 µM and the Emax is below 25%.

For the compound `CC(=O)N1CCCC2(CCN(C3C[C@@H]4CC[C@@H]3C4)CC2)c2ccccc21` (some centres unmarked) [Compound 17], in assay [1], the EC50 was above 10 µM and the Emax is below 25%. Moreover, in assay [2], the EC50 is above 10 µM and the Emax is below 25%.

Consider `CC(=O)N1CCCC2(CCN(CC3CCCCC3)CC2)c2ccccc21` [Compound 7], for which, in assay [1], the EC50 is 2 to 10 µM and the Emax was below 25%. Besides, in assay [2], the EC50 was above 10 µM and the Emax was below 25%.

With `CCOC(=O)N1C2CCC1CC(N1CCC3(CCCN(C(C)=O)c4ccccc43)CC1)C2` (centres unmarked) [Compound 28], the EC50 in assay [1] and in assay [2] was below 2 µM in each case. In addition, the maximum response (Emax) in assay [1] and in assay [2] was 25 to 100% in each case.

As for `CN1C(=O)CCC2(CCN(C3C[C@@H]4CC[C@@H]3C4)CC2)c2ccccc21` (some centres unmarked) [Compound 35], in assay [1], the EC50 is below 2 µM and the Emax was in the range of 25 to 100%. In assay [2], the EC50 is above 10 µM and the Emax was below 25%.

Take `CC(C)(C)CCN1CCC2(CCCN(C(N)=O)c3ccccc32)CC1` [Compound 13]: in assay [1], the EC50 is below 2 µM and the Emax lay in the range of 25 to 100%. Also, in assay [2], the EC50 is 2 to 10 µM and the Emax was 25 to 100%.

As to `CC(=O)N1CCCC2(CCN(CCC(C)C)CC2)c2ccccc21` [Compound 34], in assay [1], the EC50 was above 10 µM and the Emax was below 25%. In addition, in assay [2], the half-maximal effective concentration (EC50) is above 10 µM and the Emax is below 25%.

Consider `CCOC(=O)N1CCC(N2CCC3(CCC(=O)Nc4ccccc43)CC2)CC1` [Compound 18], for which the EC50 in assay [1] and in assay [2] was below 2 µM in each case. In addition, the Emax in assay [1] and in assay [2] was 25 to 100% each time.

For the compound `CN(C)C(=O)N1CCCC2(CCN(C3CCCCCC3)CC2)c2ccccc21` [Compound 11], in assay [1], the EC50 was above 10 µM and the Emax is below 25%. Further, in assay [2], the concentration giving a half-maximal response (EC50) is above 10 µM and the maximal response (Emax) is below 25%.

For the compound `CCOC(=O)N1C2CCC1CC(N1CCC3(CCC(=O)Nc4ccccc43)CC1)C2` (centres unmarked) [Compound 4], in assay [1], the EC50 is below 2 µM and the maximal effect (Emax) lay in the range of 25 to 100%. In addition, in assay [2], the EC50 was below 2 µM and the Emax lay in the range of 25 to 100%.

Regarding `NC(=O)N1CCCC2(CCN(C3CCCCCC3)CC2)c2ccccc21` [Compound 6], the EC50 in assay [1] and in assay [2] was above 10 µM each time. For the same compound, the Emax in assay [1] and in assay [2] was below 25% each time.

With `CN1C(=O)CCC2(CCN(C3CC4CCC(C4)C3)CC2)c2ccccc21` (centres unmarked) [Compound 19, 1′-(bicyclo[3.2.1.]octan-3-yl)-1-methyl-3,4-dihydrospiro[benzo[b]azepine-5,4′-piperidin]-2(1H)-one], in assay [1], the EC50 is below 2 µM and the Emax is 25 to 100%. For the same compound, in assay [2], the EC50 is below 2 µM and the Emax was 25 to 100%.

Take `CCOC(=O)N1C2CCC1CC(N1CCC3(CCCN(C(=O)N(C)C)c4ccccc43)CC1)C2` (centres unmarked) [Compound 10]: in assay [1], the EC50 fell in the range of 2 to 10 µM and the maximal response (Emax) is below 25%. For the same compound, in assay [2], the EC50 was above 10 µM and the maximum response (Emax) is below 25%.

With `CN(C)C(=O)N1CCCC2(CCN(C3CC4CCC(C4)C3)CC2)c2ccccc21` (centres unmarked) [Compound 25], the EC50 is below 2 µM in assay [1] and above 10 µM in assay [2]. Further, the Emax in assay [1] was 25 to 100%; in assay [2], below 25%.

For `CCOC(=O)N1CCC(N2CCC3(CCCN(C(C)=O)c4ccccc43)CC2)CC1` [Compound 14], the EC50 in assay [1] and in assay [2] was below 2 µM each time. Moreover, the Emax in assay [1] and in assay [2] was 25 to 100% each time.

In the case of `O=C1CCC2(CCN(C3C[C@@H]4CC[C@@H]3C4)CC2)c2ccccc2N1` (some centres unmarked) [Compound 1], the EC50 in assay [1] and in assay [2] was below 2 µM in each case. Also, the Emax in assay [1] is 25 to 100%; in assay [2], above 100%.

With `CCOC(=O)N1CCC(N2CCC3(CCC(=O)N(C)c4ccccc43)CC2)CC1` [Compound 21], in assay [1], the half-maximal effective concentration (EC50) fell in the range of 2 to 10 µM and the Emax fell in the range of 25 to 100%. For the same compound, in assay [2], the 50% effective concentration (EC50) was in the range of 2 to 10 µM and the Emax fell in the range of 25 to 100%.

These data come from patent US7786107B2, “Modulators of muscarinic receptors” (Vertex Pharmaceuticals Incorporated, priority 2006, dated 2010).
